Measurements published in patent US10328077B2 (CELGENE CORPORATION, priority 2016, dated 2019).
Like-named read-outs stand apart in the source and are kept apart here.

Legend:
CYP2C19 = CYP2C19 (Homo sapiens (Human), UniProt P33261); assay: CYP inhibition in pooled human liver microsomes, CYP2C19; format: in vitro ADME
[1] = Pharmacokinetics after IV and oral dose, monkeys; format: in vivo; details: cynomolgus monkey, plasma, male; for half-life: read-out: t1/2, z (converted)
in vivo = details: Beagle, dog, po; for AUC(0-t): AUC0-96
[2] = system: ST18 and FREM2 gene expression in MKL-1 or MS-1 tumors; assay: qRT-PCR of candidate PD biomarker genes in hMCC xenografts (dose-response); format: in vivo, mice; details: 1, 2.5, or 5 mg/kg PO BID×4.5, both models
Protocol: Female NSG mice bearing palpable hMCC MKL-1 and MS-1 tumors were randomized into four groups of three mice each. Three groups were orally administered Compund A as monotherapy at 1, 2.5, or 5 mg/kg on a twice daily dosing schedule for nine doses (BID×4.5). The fourth group was orally administered vehicle as a control on the BID schedule. Four hours after the last dosing, tumors were collected into RNAlater and stored frozen.
Total RNA was eluted in RNase-free water and analyzed by qRT-PCR.

NCI-H1417 SCLC xenograft = NCI-H1417 SCLC xenograft efficacy, athymic nude mice; format: in vivo; details: for % TGI: Day 65; for mean body weight gain: end of study
LXFS 1129 SCLC PDX model = assay: LXFS 1129 SCLC PDX model; set-up: species or system mice; details: female, NMRI-Foxnlnu, mouse, in vivo, oral, read-out: AUC0-24
[3] = system: LXFS 1129 SCLC patient-derived xenograft; assay: LXFS 1129 SCLC PDX model; set-up: species or system mice; details: mouse, in vivo
CYP2B6 mRNA = assay: CYP induction in cryopreserved human hepatocytes, CYP2B6; format: in vitro ADME; details: 0.03 to 10 μM, up to 3 days
[4] = Plasma protein binding, human
CYP1A2 mRNA = assay: CYP induction in cryopreserved human hepatocytes, CYP1A2; format: in vitro ADME; details: 0.03 to 10 μM, up to 3 days
CYP3A4 = CYP3A4 (Homo sapiens (Human), UniProt P08684); assay: CYP reaction phenotyping with recombinant human CYP enzymes; format: in vitro ADME
CYP3A4, sequence (P08684 whole entry): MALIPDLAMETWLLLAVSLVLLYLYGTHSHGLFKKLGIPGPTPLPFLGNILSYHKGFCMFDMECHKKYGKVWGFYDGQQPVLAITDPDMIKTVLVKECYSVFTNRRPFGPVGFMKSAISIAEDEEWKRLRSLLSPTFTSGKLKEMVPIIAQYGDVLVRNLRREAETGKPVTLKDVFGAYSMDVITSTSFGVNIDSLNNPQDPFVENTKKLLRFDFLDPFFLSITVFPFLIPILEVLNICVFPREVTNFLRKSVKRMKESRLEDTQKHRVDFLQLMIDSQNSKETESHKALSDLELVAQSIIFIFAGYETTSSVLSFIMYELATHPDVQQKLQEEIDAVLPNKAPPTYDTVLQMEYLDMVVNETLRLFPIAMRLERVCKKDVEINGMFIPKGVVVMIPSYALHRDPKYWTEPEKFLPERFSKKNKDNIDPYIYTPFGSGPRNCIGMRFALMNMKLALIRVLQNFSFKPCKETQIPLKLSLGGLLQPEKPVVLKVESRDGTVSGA
From the text: The role of non-CYP enzymes in the metabolism of Compound A is yet to be ascertained.

hERG potassium channel = hERG potassium channel (Homo sapiens (Human), UniProt Q12809); assay: in vitro; details: HEK293 cells stably expressing hERG channels
hERG potassium channel, sequence (Q12809 whole entry): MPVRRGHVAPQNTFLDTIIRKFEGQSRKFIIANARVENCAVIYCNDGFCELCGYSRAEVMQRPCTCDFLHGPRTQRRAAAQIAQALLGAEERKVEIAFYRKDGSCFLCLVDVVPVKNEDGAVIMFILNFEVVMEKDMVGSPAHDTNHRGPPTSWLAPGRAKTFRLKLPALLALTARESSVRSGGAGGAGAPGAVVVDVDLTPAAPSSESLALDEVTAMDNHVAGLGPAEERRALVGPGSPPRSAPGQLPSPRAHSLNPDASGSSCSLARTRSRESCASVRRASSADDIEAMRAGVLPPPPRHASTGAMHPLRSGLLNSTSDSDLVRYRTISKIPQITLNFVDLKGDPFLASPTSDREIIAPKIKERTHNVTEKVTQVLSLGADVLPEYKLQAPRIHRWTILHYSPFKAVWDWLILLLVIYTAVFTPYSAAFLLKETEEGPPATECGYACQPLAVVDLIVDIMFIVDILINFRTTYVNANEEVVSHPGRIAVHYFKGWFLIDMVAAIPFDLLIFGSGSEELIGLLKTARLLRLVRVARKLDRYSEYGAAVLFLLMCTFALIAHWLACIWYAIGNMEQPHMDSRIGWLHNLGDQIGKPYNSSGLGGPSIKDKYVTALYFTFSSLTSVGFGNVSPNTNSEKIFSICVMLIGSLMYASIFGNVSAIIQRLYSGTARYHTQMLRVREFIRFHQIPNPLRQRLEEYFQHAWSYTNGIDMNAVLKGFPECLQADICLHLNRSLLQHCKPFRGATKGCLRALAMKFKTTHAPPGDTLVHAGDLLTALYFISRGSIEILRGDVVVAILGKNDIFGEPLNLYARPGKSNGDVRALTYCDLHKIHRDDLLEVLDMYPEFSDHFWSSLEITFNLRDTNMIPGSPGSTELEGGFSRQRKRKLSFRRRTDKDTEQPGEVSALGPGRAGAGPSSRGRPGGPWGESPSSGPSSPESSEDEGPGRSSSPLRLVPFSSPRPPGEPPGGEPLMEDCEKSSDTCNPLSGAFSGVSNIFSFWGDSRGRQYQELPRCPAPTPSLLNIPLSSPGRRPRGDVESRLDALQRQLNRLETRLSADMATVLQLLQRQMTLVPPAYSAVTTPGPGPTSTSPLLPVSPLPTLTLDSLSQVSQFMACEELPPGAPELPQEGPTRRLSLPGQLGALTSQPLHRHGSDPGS

[5] = system: LXFS 573 SCLC patient-derived xenograft
[6] = Pharmacokinetics after IV and oral dose, dogs; format: in vivo, Beagle dogs; details: dog, plasma
CYP2C9 = CYP2C9 (Homo sapiens (Human), UniProt P11712); assay: CYP inhibition in pooled human liver microsomes, CYP2C9; format: in vitro ADME; details: up to 50 μM
CYP2C9, sequence (P11712 whole entry): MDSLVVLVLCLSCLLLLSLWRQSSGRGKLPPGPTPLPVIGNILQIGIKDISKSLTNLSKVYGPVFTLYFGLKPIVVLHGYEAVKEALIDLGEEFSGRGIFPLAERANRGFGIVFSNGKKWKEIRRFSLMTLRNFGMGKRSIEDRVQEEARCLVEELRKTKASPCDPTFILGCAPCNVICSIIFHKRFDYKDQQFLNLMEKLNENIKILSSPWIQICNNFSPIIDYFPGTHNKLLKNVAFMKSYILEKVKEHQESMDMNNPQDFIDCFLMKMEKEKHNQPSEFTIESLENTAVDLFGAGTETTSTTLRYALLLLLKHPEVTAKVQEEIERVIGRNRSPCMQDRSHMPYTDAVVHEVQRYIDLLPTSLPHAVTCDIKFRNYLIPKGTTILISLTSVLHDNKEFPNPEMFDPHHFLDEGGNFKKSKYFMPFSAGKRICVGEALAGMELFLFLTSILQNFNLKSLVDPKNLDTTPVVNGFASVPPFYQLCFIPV

[7] = system: LU2514 SCLC patient-derived xenograft; assay: LU2514 HuPrime SCLC PDX model; format: in vivo, mice
Protocol: Tumor growth inhibition analysis was performed on Day 28 post treatment, the last day of dosing.

[8] = Compound A 5 mg/kg/day PO days 1-133
[9] = Beagle, male, single IV dose 1 mg
[10] = Beagle, male, single oral dose 1 mg base/kg
[11] = Beagle, male, single oral dose 3 mg base/kg
[12] = Beagle, male, single oral dose 6 mg base/kg

CYP2C19, sequence (P33261 whole entry): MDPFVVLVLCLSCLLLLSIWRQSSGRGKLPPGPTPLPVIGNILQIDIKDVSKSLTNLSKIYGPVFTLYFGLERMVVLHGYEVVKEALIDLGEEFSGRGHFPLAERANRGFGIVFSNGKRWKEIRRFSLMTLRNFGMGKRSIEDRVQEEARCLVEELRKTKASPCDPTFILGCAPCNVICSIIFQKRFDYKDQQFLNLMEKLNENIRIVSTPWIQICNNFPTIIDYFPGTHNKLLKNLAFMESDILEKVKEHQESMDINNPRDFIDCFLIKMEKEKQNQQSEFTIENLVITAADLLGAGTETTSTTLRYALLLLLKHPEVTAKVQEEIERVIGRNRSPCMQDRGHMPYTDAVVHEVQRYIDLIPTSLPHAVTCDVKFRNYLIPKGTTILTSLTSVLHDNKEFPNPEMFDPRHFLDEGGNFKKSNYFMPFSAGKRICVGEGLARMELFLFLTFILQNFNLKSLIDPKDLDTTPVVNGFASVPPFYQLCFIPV

Compound: COc1ccc(-c2c(-c3ccc(C#N)c(F)c3)nc(N3CCC(N)CC3)n(C)c2=O)cc1F [Compound A, 4-[2-(4-amino-piperidin-1-yl)-5-(3-fluoro-4-methoxy-phenyl)-1-methyl-6-oxo-1,6-dihydro-pyrimidin-4-yl]-2-fluoro-benzonitrile]
- IC50 (CYP2C19): > 50 µM
- AUC(0-inf) ([1]; single IV dose 1 mg): 983 ng·h/mL
- AUC(0-t) ([1]; single IV dose 1 mg): 912 ng·h/mL
- clearance ([1]; single IV dose 1 mg): 18 mL/min/kg
- Vd ([1]; single IV dose 1 mg, mean (SD), read-out: Vss): 17.1 L/kg
- half-life ([1]; single IV dose 1 mg): 12 h
- AUC(0-t) ([1]; single oral dose 5 mg base/kg): 3620 ng·h/mL
- Cmax ([1]; single oral dose 5 mg base/kg): 187 ng/mL
- Tmax ([1]; single oral dose 5 mg base/kg): 6 h
- bioavailability ([1]; single oral dose 5 mg base/kg): 82%
- half-life ([1]; single oral dose 5 mg base/kg): 12.9 h
- AUC(0-t) (in vivo; both, 0.125 mg/kg): 127 ng·h/mL
- Cmax (in vivo; both, 0.125 mg/kg, Cmax): 5.26 ng/mL
- Cmax (in vivo; both, 0.125 mg/kg, combined Day 15 mean Cmax): 5.26 ng/mL
- Cmax (in vivo; both, 0.25 mg/kg, combined Day 15 mean Cmax): 11 ng/mL
- Cmax (in vivo; both, 0.5 mg/kg, combined Day 15 mean Cmax): 22 ng/mL
- AUC(0-t) (in vivo; both): 120 ng·h/mL
- Cmax (in vivo; both, Cmax): 5.79 ng/mL
- AUC(0-t) (in vivo; female, 0.25 mg/kg): 343 ng·h/mL
- Cmax (in vivo; female, 0.25 mg/kg, Cmax): 12.1 ng/mL
- AUC(0-t) (in vivo; female, 0.5 mg/kg): 729 ng·h/mL
- Cmax (in vivo; female, 0.5 mg/kg, Cmax): 26.6 ng/mL
- AUC(0-t) (in vivo; female): 141 ng·h/mL
- AUC(0-t) (in vivo; male, 0.25 mg/kg): 335 ng·h/mL
- Cmax (in vivo; male, 0.25 mg/kg, Cmax): 11.9 ng/mL
- AUC(0-t) (in vivo; male, 0.5 mg/kg): 762 ng·h/mL
- Cmax (in vivo; male, 0.5 mg/kg, Cmax): 24 ng/mL
- AUC(0-t) (in vivo; male): 107 ng·h/mL
- ST18 and FREM2 change in gene expression in vivo [2]: ≥ 2 fold
- Median Tumor Volume Day 65 (NCI-H1417 SCLC xenograft; 2.5 mg base/kg PO QDx65): 39.3 mm^3
- Median Tumor Volume Diff. (Day 65 - Day 0) (NCI-H1417 SCLC xenograft; 2.5 mg base/kg PO QDx65): −69.9 mm^3
- % TGI (NCI-H1417 SCLC xenograft; 2.5 mg base/kg PO QDx65): 159%
- TGI (NCI-H1417 SCLC xenograft; 2.5 mg base/kg oral QD×65, Day 65): 159%
- mean body weight gain (NCI-H1417 SCLC xenograft; 2.5 mg base/kg): 1%
- Median Tumor Volume Day 65 (NCI-H1417 SCLC xenograft; 5 mg base/kg PO QDx65): 15.9 mm^3
- Median Tumor Volume Diff. (Day 65 - Day 0) (NCI-H1417 SCLC xenograft; 5 mg base/kg PO QDx65): −92.3 mm^3
- % TGI (NCI-H1417 SCLC xenograft; 5 mg base/kg PO QDx65): 178%
- TGI (NCI-H1417 SCLC xenograft; 5 mg base/kg oral QD×65, Day 65): 178%
- mean body weight gain (NCI-H1417 SCLC xenograft; 5 mg base/kg): 7.5%
- tumors regressed in net volume (NCI-H1417 SCLC xenograft; 2.5 and 5 mg base/kg groups together): 14 out of 15
- AUC(0-t) (LXFS 1129 SCLC PDX model; 1.5 mg base/kg): 243 ng·h/mL
- AUC(0-t) (LXFS 1129 SCLC PDX model; 5 mg base/kg): 1260 ng·h/mL
- mean body weight loss [3]: < 6%
- increase in CYP2B6 mRNA over vehicle control (CYP2B6 mRNA): < 2 fold
- bound to plasma proteins [4]: 83%
- increase in CYP1A2 mRNA over vehicle control (CYP1A2 mRNA): < 2 fold
- role of CYP3A4 in metabolism (CYP3A4): predominantly responsible for the oxidative metabolism
- inhibition at 0.3 µM (hERG potassium channel): 5.9 ± 1.3%
- inhibition at 1 µM (hERG potassium channel): 17.8 ± 0.3%
- inhibition at 3 µM (hERG potassium channel): 47 ± 1.9%
- inhibition at 10 µM (hERG potassium channel): 77.3 ± 0.2%
- % TGD [5, 8]: 217%
- T − C [5, 8]: 91 days
- median TTE [5, 8]: 133 days
- median TTE ([5]; Compound A monotherapy 5 mg/kg PO daily): 133 days
- study survivors ([5]; Compound A monotherapy 5 mg/kg, Day 133, n=8): seven
- MTV of study survivors ([5]; mouse, in vivo): 1064 mm3
- MTV, median tumor volume of study survivors ([5]; mouse, in vivo): (1064) mm^3
- SS, number of study survivors ([5]; mouse, in vivo): 7
- half-life ([6]; Beagle (dogs), IV, non-rodents (dogs, monkeys), read-out: half-life): 12 to 20 h
- bioavailability ([6]; Beagle, po, dogs and monkeys, read-out: oral bioavailability): 82 to 100%
- AUC(0-inf) [6, 9]: 1940 ng·h/mL
- AUC(0-t) [6, 9]: 1300 ng·h/mL
- clearance [6, 9]: 9 mL/min/kg
- Vd ([6]; Beagle, male, single IV dose 1 mg, mean (SD), read-out: Vss): 11.1 L/kg
- half-life ([6]; Beagle, male, single IV dose 1 mg, read-out: t1/2, z (converted)): 15.5 h
- AUC(0-t) [6, 10]: 1090 ng·h/mL
- Cmax [6, 10]: 69 ng/mL
- Tmax [6, 10]: 2 h
- bioavailability ([6]; Beagle, male, single oral dose 1 mg base/kg, read-out: % F): 84%
- half-life ([6]; Beagle, male, single oral dose 1 mg base/kg, read-out: t1/2, z (converted)): 15 h
- AUC(0-t) [6, 11]: 3790 ng·h/mL
- Cmax [6, 11]: 298 ng/mL
- Tmax [6, 11]: 1 h
- bioavailability ([6]; Beagle, male, single oral dose 3 mg base/kg, read-out: % F): 100%
- half-life ([6]; Beagle, male, single oral dose 3 mg base/kg, read-out: t1/2, z (converted)): 19.4 h
- AUC(0-t) [6, 12]: 8790 ng·h/mL
- Cmax [6, 12]: 627 ng/mL
- Tmax [6, 12]: 1 h
- bioavailability ([6]; Beagle, male, single oral dose 6 mg base/kg, read-out: % F): 100%
- half-life ([6]; Beagle, male, single oral dose 6 mg base/kg, read-out: t1/2, z (converted)): 17.8 h
- direct inhibition of CYP2C9 (CYP2C9): little to no direct inhibitory effect
- Median Tumor Volume Day 28 ([7]; 5 mg base/kg PO QDx28): 1244.8 mm^3
- Median Tumor Volume Diff. (Day 28 - Day 1) ([7]; 5 mg base/kg PO QDx28): 1071.6 mm^3
- Median Tumor Volume Day 28 ([7]; 10 mg base/kg PO QDx28): 906.0 mm^3
- Median Tumor Volume Diff. (Day 28 - Day 1) ([7]; 10 mg base/kg PO QDx28): 732.3 mm^3
- mean body weight loss ([7]; both LU2514 studies): < 10%
